Reference: PubChem BioAssay AID698 (NMMLSC, 2007)
Activity calls are given as the source filed them. How the calls were made is not given here.

Target: N-formyl peptide receptor 2 (Homo sapiens) (UniProt P25090)
Assay: FPRL1 antagonists blocking calcium signaling, confirmation, cell-based, calcium response (AID 698)
Conditions: FPRL1-expressing cells, ligand-induced calcium response, antagonist mode; active compounds read high; concentration not given here

N-formyl peptide receptor 2 (Homo sapiens), sequence (P25090 whole entry, looked up): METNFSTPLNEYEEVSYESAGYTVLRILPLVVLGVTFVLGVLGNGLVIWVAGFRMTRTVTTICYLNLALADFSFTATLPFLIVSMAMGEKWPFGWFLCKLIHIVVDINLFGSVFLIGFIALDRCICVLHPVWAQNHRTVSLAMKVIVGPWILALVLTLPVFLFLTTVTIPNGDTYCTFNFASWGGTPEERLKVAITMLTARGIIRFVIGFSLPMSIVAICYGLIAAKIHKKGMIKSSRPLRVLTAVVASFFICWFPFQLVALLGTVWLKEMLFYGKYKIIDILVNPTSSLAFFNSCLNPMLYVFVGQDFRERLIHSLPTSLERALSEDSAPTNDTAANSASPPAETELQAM

Row | inhibition | Compound
1 | 69.5% (inactive) | Nc1ccc(Nc2ccccc2N)cc1
2 | 93.4% | CC(=O)OCCNc1cc(N2CCN(C)CC2)c2noc3c2c1C(=O)c1ccccc1-3
3 | 96.3% | COc1ccc(-c2cc(C(F)(F)F)nc(N3CCN(Cc4ccccc4)CC3)n2)cc1OC
4 | 98.1% | COc1ccc(-c2cn3cccnc3n2)cc1NC(=O)C1CC1
5 | 0% (inactive) | CCOC(=O)CSc1nnc(CNC(=O)c2cc(OCC)c(OCC)c(OCC)c2)n1C
6 | 0% (inactive) | O=C(O)CCCNc1cc(N2CCC3(CC2)OCCO3)c2noc3c2c1C(=O)c1ccccc1-3
7 | 0% (inactive) | CCOc1cc(C(=O)NCc2nnc(SCC(=O)OC)n2C)cc(OCC)c1OCC
